Assay results published in article PMC8657848, “Developmental Toxicity and Biotransformation of Two Anti-Epileptics in Zebrafish Embryos and Early Larvae” (International Journal of Molecular Sciences, 2021).
Several values for one entry are separate records, joined by “and”; a condition that tells them apart may be missing. Identical values can stand only once.

Columns and labels:
[1] = tested on: zebrafish embryos; conditions: cited from earlier work; for Teratogenicity on zebrafish development: after 70 h of exposure (time point 72 hpf)
[2] = Quantification of compound in stock and culture medium relative to nominal concentration (LC-MS); type: physicochemical; conditions: 96 hpf
Experimental: The control and test mediums were also kept in the same incubator until the last time point of the experiment. The embryo media were renewed every 48 h, to avoid medium acidification and oxygen deprivation. At each medium change and at the last time point of the experiment (Figure 9), the media exposed to the embryos were pooled and kept at −80 °C for further use (n = 3). Moreover, samples from the stock solutions kept at 28.5 °C ± 0.3 °C were also taken at 0 and 120 hpf (n = 3), whereas samples were only taken at 96 hpf for the metabolites medium (E-CBZ and HPPH).

[3] = tested on: zebrafish embryos/larvae; experiment: Quantification of parent compounds and metabolites in whole zebrafish embryos/larvae homogenate extracts; conditions: for Uptake by embryos and larvae (quantified in homogenate extracts): 24 and 120 hpf, CBZ, PHE 31.25, 85, 250 µM, E-CBZ, HPPH 250 µM
Experimental: In three biological replicates (n = 3; 20 embryos/replicate) and at the two desired developmental stages (24 and 120 hpf), embryos/larvae of each test and control group were pooled and then rinsed three times with cold EMS (4 °C) on a mesh (Cell strainer […] Nylon, Steril Falcon®, Durham, NC, USA). Embryos collected at 24 hpf were not dechorionated, as the focus of this study was on the potential formation of the mammalian active metabolites. Moreover, it was argued that the chorion was more permeable than previously believed and that dechorionation could increase background malformations during gross morphology investigation. Embryos/larvae were then transferred and kept for five min in cryotubes (Cryo.S™, Greiner Bio-One, Frickenhausen, Germany) filled with 500 µL of cold embryo medium (4 °C), before being snap-frozen in liquid nitrogen and kept, for later use, at −80 °C (Figure 9).
The extraction preparation was based on Brox et al. for two developmental stages, 24 and 120 hpf, and performed in triplicate for each test group (n = 3, 20 embryos/replicate) (Figure 9). On the day of the extraction procedure, frozen samples (see Section 4.2.1) were thawed on ice and EMS was removed. A volume of 500 µL of acetonitrile (ACN) (purity ≥99.9%, Merck, Darmstadt, Germany) containing the internal standard lamotrigine, LAMO, (≥98% purity, CAS number: 84057-84-1, Sigma-Aldrich, Merck, Darmstadt, Germany) was then added to each tube to reach a final concentration of 0.39 µM, after dilution in HPLC-grade water. Samples were vortexed (VM3, CAT, Germany) for 5 min at a 2000 rotation/min speed, before being placed on ice and ultrasonicated with an Ultrasonic Processor VCX 130 (Sonics, Newtown, CT, USA) fifteen times for 30 s at an 80% amplitude with pause intervals of 30 s. Supernatants of the samples were then centrifuged (Centrifuge 5424 R, Eppendorf, Hamburg, Germany) twice at 4 °C for 15 min at 15,000× g, snap-frozen and kept for later use at −80 °C, whereas the pellets were discarded.
First, both sample types were processed to reach a final percentage of 30% ACN and a concentration of 0.39 µM of the IS, LAMO. […] Calibration curves and quality controls were prepared in their corresponding reaction mixtures to minimize matrix or extraction process effects. The analytical investigations were performed on an Acquity Ultra Performance Liquid Chromatography (UPLC) with sample manager, binary solvent manager, diode array detector and a triple-quadrupole detector (ACQUITY UPLC-triple quadrupole detector, Waters, Milford, CT, USA) equipped with the Masslynx software (version 4.1). […] Separation was accomplished in 6 min, using a flow rate of 0.5 mL/min. The solvent gradient program was set as follows: 85% A/15% B (0–0.5 min); 85–0% A/15–100% B (0.5–3.3 min); 0% A/100% B (3.3–4.4 min); 0–85% A/100–15% B (4.4–4.5 min); 85% A/15% B (4.5–6 min). The column was set at 40 °C and the injection volume was 10 μL. For the mass spectrometric conditions, the following parameters were used in positive ionization mode: capillarity voltage 3.5 kV, extractor voltage 3 V, cone voltage 35 V, Rf lens 0.1 V. The source temperature was set at 120 °C and the desolation temperature at 450 °C. The desolvation gas flow was fixed at 1000 L/h and cone gas flow at 50 L/h. […] The limit of quantification, linearity, matrix effects and specificity of the method developed for each compound were validated based on the European Medicines Agency (EMA) guidelines for bioanalytical method validation and the study from Kislyuk et al..
For the quantification of the metabolites E-CBZ and HPPH, the samples processed were the microsomal incubation reactions (see Section 4.3.2), the zebrafish culture and stock medium (4.2.1) and the zebrafish embryos/larvae extracts (see Section 4.2.3). Samples from the different experiments were also prepared, as for the parent compounds, to reach a final percentage of 30% ACN and a concentration of 0.39 µM of the IS, LAMO.

[4] = tested on: zebrafish embryos and larvae; experiment: Morphological evaluation of zebrafish embryos/larvae exposed from 5¼ to 120 hpf; conditions: for Significant effect on embryo/larva development after exposure to the metabolite: 5¼–120 hpf; for Teratogenicity in zebrafish (conclusion from morphological and analytical assessment): exposure 5¼–120 hpf
Experimental: Each experiment was performed in two biological replicates (n = 2, 20 embryos/replicate) and consisted of a medium control group (EMS), solvent control group(s) (EMS + 0.5% DMSO and/or EMS + 1% DMSO) and four dose groups. […] Embryos were reared until they reached the desired developmental stage, under the same environmental conditions as the adults (28.5 °C ± 0.3 °C with a 14/10 h light/dark cycle) in the incubator (TIN-IN35, Phoenix instrument, Garbsen, Germany).
For the metabolites, E-CBZ (≥98% purity, CAS number: 36507-30-9, Supelco, Merck, Darmstadt, Germany) and HPPH (98% purity, CAS number: 2784-27-2, Sigma-Aldrich®, Merck, Darmstadt, Germany), we only selected one high concentration, 250 µM (see Supplementary Table S1). […] A higher percentage of DMSO was used for E-CBZ for the optimum dissolution of E-CBZ in EMS. Immediately after the selection (see Section 4.1), twenty embryos were randomly distributed in each control and test group. Embryos were exposed at the latest at 5 hpf in a final volume of 300 µL medium at a density of a fish per well.
For each biological replicate (n = 2), zebrafish embryos were morphologically investigated at 5¼, 10, 24, 48, 72, 96 and 120 hpf (Figure 9) using an Olympus CKX41 microscope with an Olympus U-TV0.5XC-3 lighting and an Olympys 4x/0.16 Uplan APO microscope objective (Shinjuku, Tokyo, Japon) to follow the developmental stages described by Kimmel et al.. The 5¼- and 10-hpf time points served as control steps to identify unfertilized or coagulated eggs that were included unwittingly to the experiment and referenced as coagulated in the 24-hpf morphological sheet (see Supplementary Figure S3). A series of morphological parameters were explored, adapted from Nagel et al., depending on the different time points of interest and described previously by our group (see Supplementary Figure S3). All parameters were scored 0 if normal and 1 if malformed. This binary scale was used to facilitate the scoring and no gradation of the severity of the endpoints was evaluated in this study.

[5] = CBZ/E-CBZ experiment, 250 µM, 120 hpf, affected/evaluated, replicates 1 and 2
[6] = PHE/HPPH experiment, 250 µM, 120 hpf, affected/evaluated, replicates 1 and 2

CC1(C)OC(=O)NC1=O [DMO, dimethadione]
Teratogenicity on zebrafish development [1]: induced teratogenicity

NC(=O)N1c2ccccc2C2OC2c2ccccc21 (stereo not drawn) [E-CBZ, carbamazepine-10,11-epoxide]
Quantified concentration above the nominal concentration ([2]; 250 µM, culture medium): around 20%
Percentage of quantified compound concentration relatively to the nominal concentration ([2]; CBZ–E-CBZ, Culture medium, nominal 250 µM): 117.3 ± 9.3%
Findings after incubation of zebrafish embryos ([1]; 2.6 mg/L (10.3 µM), 3 to 144 hpf): lack of findings
Uptake by embryos and larvae (quantified in homogenate extracts) [3]: Uptake of the compounds was also observed
Significant effect on embryo/larva development after exposure to the metabolite ([4]; 250 µM): delay in swim bladder inflation at 120 hpf for one replicate
Morphological differences compared with the controls before 48 hpf ([4]; CBZ 31.25, 85, 250 µM, E-CBZ 250 µM): No statistically significant differences
Deviation Tail Curve [4, 5]: 1/20
Malformation Head Deviation Eye [4, 5]: 1/20
Malformation Head Deviation Mouth [4, 5]: 1/20
Oedema Head [4, 5]: 1/20
Oedema Pericardium [4, 5]: 1/20
Oedema Yolk [4, 5]: 1/20
Swim Bladder Not Inflated [4, 5]: 3/20 and 6/20 *
Teratogenicity in zebrafish (conclusion from morphological and analytical assessment) [4]: not teratogenic in zebrafish

O=C1NC(=O)C(c2ccccc2)(c2ccc(O)cc2)N1 (stereo not drawn) [HPPH, 5-(4-hydroxyphenyl)-5-phenylhydantoin]
Uptake by embryos and larvae (quantified in homogenate extracts) [3]: Uptake of the compounds was also observed
Internal concentration, times higher at 24 hpf than at 120 hpf ([3]; all concentrations): ~5 times
Significant effect on embryo/larva development after exposure to the metabolite ([4]; 250 µM): no significant effect
Deviation Tail Curve [4, 6]: 2/20
Deviation Tail Tissue Deviation [4, 6]: 1/20
Malformation Head Deviation Eye [4, 6]: 2/20
Swim Bladder Not Inflated [4, 6]: 5/20 and 6/20
Teratogenicity in zebrafish (conclusion from morphological and analytical assessment) [4]: not teratogenic in zebrafish

CN1C(=O)OC(C)(C)C1=O [TMO, trimethadione]
Teratogenicity on zebrafish development [1]: induced teratogenicity
